Paper PMC9519396, “First thermostable CLIP-tag by rational design applied to an archaeal O^6-alkyl-guanine-DNA-alkyl-transferase” (Computational and Structural Biotechnology Journal, 2022)

Biological target: T1, SsOGT-MC^8 (Saccharolobus solfataricus, UniProt Q97VW7, G105N/G130P/K110E/M106T/R102A/S100A/S109D/S132L)
T1 construct: gene ogt; TSCLIP; synthetic gene with eight substitutions, Y90 kept; His6-tag, pHTP1, E. coli BL21 Rosetta2 (DE3), Ni-NTA purified; 8AES holds no ligand
T1 sequence (Q97VW7 1-151 S100A/R102A/G105N/M106T/S109D/K110E/G130P/S132L): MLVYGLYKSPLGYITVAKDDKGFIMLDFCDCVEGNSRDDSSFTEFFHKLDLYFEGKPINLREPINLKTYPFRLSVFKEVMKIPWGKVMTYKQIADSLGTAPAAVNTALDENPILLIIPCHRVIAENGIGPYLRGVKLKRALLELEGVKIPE
Experiment: competitive labelling with BC-TMR, SDS-PAGE fluorescence gel imaging
Type: biochemical
From the text: competitive labelling with BC-TMR, SDS-PAGE fluorescence gel imaging on SsOGT-MC^8

## [N-]=[N+]=NCCCCCC(=O)NCc1ccc(COc2nccc(N)n2)cc1 [BC-2]
  IC50: 128 ± 31.1 µM
